Data set [1] deals with collagen types I and V. Put plainly: Collagen helix stability: pepsin digestion of culture medium, SDS-PAGE. As to conditions: pepsin in 0.5M acetic acid. The format is cell-based, bovine. The protocol:
Cell Culture-Keratocytes were isolated from adult bovine corneas using two sequential collagenase digestions as previously described (see […], and […]. Production of prostaglandin D synthase as a keratan sulfate proteoglycan by cultured bovine keratocytes Invest Ophthalmol Vis Sci. 2001; 42:1201-1207; which is incorporated herein by reference). […] Each sample received a second 50 μl aliquot from the pepsin stock, and digestion was allowed to continue for an additional six hours at 4° C. The samples were titrated with 1 N NaOH to pH 8.0 to inactivate the enzyme, dialyzed against water overnight, lyophilized, reconstituted in 1 X SDS running buffer and separated on 10% bis-tris gels under reducing conditions. The gels were stained with Safestain following the manufacturer's protocol.

Data set [2] has as its system keratocan. The data set is described as follows: Western blot of keratan sulfate proteoglycan accumulation in the medium: keratocan. Format: cell-based, bovine. The protocol: (§1) Cell Culture-Keratocytes were isolated from adult bovine corneas using two sequential collagenase digestions as previously described (see […], and […]. Production of prostaglandin D synthase as a keratan sulfate proteoglycan by cultured bovine keratocytes Invest Ophthalmol Vis Sci. 2001; 42:1201-1207; which is incorporated herein by reference). […] Western blot analysis-Core protein and protein levels in the media were measured by Western blot as previously described. In brief, the culture media was collected from each culture condition, concentrated by spin filtration to one tenth or one fiftieth of the original volume. The size of the aliquot needed from each sample to provide a similar signal on film by Western blot was empirically determined. The measured pixel density was then divided by the DNA content of the culture equivalent to the amount loaded and expressed as pixel density per μg DNA. Blots were probed with polyclonal antibodies to bovine keratocan or lumican (diluted 1:1000) or prostaglandin D synthase (PGDS) (1:20,000). The lumican and keratocan antibodies are peptide antibodies raised against the core protein^48. The rabbit antiserum to bovine PGDS was a generous gift of Gary […] University). Membranes were rinsed and incubated for 1 hour in 1:10,000 horseradish peroxidase (HRP)-conjugated secondary IgG (GE Healthcare, Piscataway, N.J.). Protein bands were visualized using ECL (GE Healthcare, Piscataway, N.J.) on Kodak Bio-Max XAR X-ray film. Band density was measured using a Bio-Rad GS-710 Calibrated Imaging Densitometer (Bio-Rad, Hercules, Calif.).

Data set [3] concerns lumican. Put plainly: Western blot of keratan sulfate proteoglycan accumulation in the medium: lumican. Format: cell-based, bovine. The method, then: as §1
Data set [4] has as its system prostaglandin D synthase (PGDS). Put plainly: Western blot of keratan sulfate proteoglycan accumulation in the medium: PGDS. Format: cell-based, bovine. The method, then:
as §1, with “Membranes were rinsed and incubated for 1 hour in 1:10,000 horseradish peroxidase (HRP)-conjugated secondary IgG (GE Healthcare, Piscataway, N.J.). Protein bands were visualized using ECL (GE Healthcare, Piscataway, N.J.) on Kodak Bio-Max XAR X-ray film.” left out

Data set [5] has as its system cells. As to conditions: cited from earlier work.
The test system of data set [6] is keratocytes. The data set is described as follows: Keratocyte population growth in defined media (DNA content, Cyquant). The format is cell-based, bovine. As to conditions: DMEM/F12; insulin 10 μg/ml, ascorbate 1 mM; days 1-10. The source says: Cell Culture-Keratocytes were isolated from adult bovine corneas using two sequential collagenase digestions as previously described (see […], and […]. Production of prostaglandin D synthase as a keratan sulfate proteoglycan by cultured bovine keratocytes Invest Ophthalmol Vis Sci. 2001; 42:1201-1207; which is incorporated herein by reference). […] DNA quantitation-Cell layers were harvested on days 1, 4, 7 and 10 to measure DNA content using Cyquant (Invitrogen, Carlsbad, Calif.). Briefly, the cell layers were rinsed with PBS, frozen, thawed and solubilized in a lysis buffer supplemented with a DNA binding dye. The DNA content was determined at 480/535 nm by measuring 4 wells in triplicate and comparing the values to a calf thymus DNA standard. The DNA content of parallel cultures was measured for experiments that utilized the cell layer. Cell proliferation-Cultures were radiolabeled with 20 μCi ^3H-thymidine/ml of medium for 72 hours beginning on days 1 and 4. The labeled medium was removed upon harvesting, and the cell layers washed with cold PBS. The cell layers were processed as described under DNA quantitation. Incorporation into DNA was determined as previously described.

Data set [7] deals with keratocytes. The data set is described as follows: Collagen synthesis: 3H-glycine incorporation into collagenase-sensitive protein. The format is cell-based, bovine. The settings on record: 3H-glycine 72 h. The protocol:
Cell Culture—Keratocytes were isolated from adult bovine corneas using two sequential collagenase digestions as previously described (see Berryhill B L, Beales M P, and Hassell J R. Production of prostaglandin D synthase as a keratan sulfate proteoglycan by cultured bovine keratocytes Invest Ophthalmol Vis Sci. 2001; 42:1201-1207; which is incorporated herein by reference). Cells were plated in DMEM/F12 at high density (20,000 cells/cm^2) in 6-well plates (Costar, Cambridge, Mass.) and allowed to attach overnight at 37° C. in 5% CO2. The medium was changed the next day (day 1) and on days 4, 7 and 10 to fresh DMEM or DMEM supplemented with insulin (10 μg/ml), with or without 1 mM 2-phospho-L-ascorbic acid (ascorbate). Ethyl-3,4-dihydroxybenzoate (EDB) was added at 0.08 mM and 0.4 mM final concentration on day 1.
Collagen synthesis—The incorporation of ^3H-glycine into collagen was determined as previously described. In summary, cultures were incubated for 72 hours in medium containing 25 μCi ^3H-glycine/ml beginning on day 1. Media was adjusted to 4M guanidine HCl and the cell layers extracted in 4M guanidine HCl. Unincorporated isotope in media and cell layers was removed by chromatography on PD10 columns equilibrated and eluted with 4M guanidine HCl (GE Healthcare, Piscataway, N.J.). Fractions containing incorporated radioactivity were pooled, dialyzed against water and 400 μl aliquots incubated with or without 2.5 Units collagenase form III (Advanced Biofactures, Lynbrook, N.Y.) in collagenase digestion medium (3 mM N-ethyl maleimide, 50 mM Tris pH 7.5, 150 mM NaCl and 5 mM CaCl2) for 3 hours at 37° C. Undigested proteins were precipitated with carrier BSA using cold 10% TCA containing 0.5% tannic acid and released incorporated counts measured by liquid scintillation. The DNA content was determined as described above.

Data set [8] relates to keratan sulfate. Put plainly: Incorporation of 35SO4 into keratan sulfate (endo-β-galactosidase sensitive). Format: cell-based, bovine. As to conditions: 72 h labeling; medium; CPM per μg DNA; vs control. The source says:
(§2) Cell Culture-Keratocytes were isolated from adult bovine corneas using two sequential collagenase digestions as previously described (see […], and […]. Production of prostaglandin D synthase as a keratan sulfate proteoglycan by cultured bovine keratocytes Invest Ophthalmol Vis Sci. 2001; 42:1201-1207; which is incorporated herein by reference). […] The medium was collected, frozen, lyophilized and reconstituted in 4 M guanidine HCl. Unincorporated isotope was removed using PD 10 columns Fractions containing incorporated ^35SO4 were combined and concentrated using Amicon Ultra spin-concentrators. Incorporation into CS and KS was determined by digestion with chondroitinase ABC or endo-β-galactosidase (Seikagaku, Associates of Cape Cod, E. Falmouth, Mass.) as previously described. Aliquots containing equivalent incorporated radioactivity were fractionated using a Superose 6 12/30 HR column (GE Healthcare, Piscataway, N.J.) equilibrated and eluted with 4M guanidine HCl (0.05 NaAc, pH6.5) at 0.3 ml/min Fractions (0.6 ml) were collected and incorporation measured by liquid scintillation counting. The levels of CS and KS in each fraction were determined as described above.

The test system of data set [9] is chondroitin sulfate. Put plainly: Incorporation of 35SO4 into chondroitin sulfate (chondroitinase ABC sensitive). The format is cell-based, bovine. The settings on record: 72 h labeling; medium; CPM per μg DNA; vs control.
Text: as §2

Where [10] appears, read: 0.08 mM EDB in medium containing insulin and ascorbate, 72 hours, vs insulin+ascorbate.
[11] abbreviates: 0.4 mM EDB in medium containing insulin and ascorbate.
[12] abbreviates: medium day 4, pixel density per μg DNA, vs control.

As for `CCOC(=O)c1ccc(O)c(O)c1` [EDB, Ethyl-3,4-dihydroxybenzoate], the “Pepsin-resistant collagen bands in the medium with EDB” value in data set [1] (0.4 mM EDB in insulin plus ascorbate medium) is reported as “absent”. Moreover, the “Reduction of keratocan accumulation” value in data set [2] (setting [10]) is 28%. In addition, in data set [2] (setting [11]), the “Keratocan accumulation in the medium” value is “levels below of those measured in insulin alone”. For the same compound, the “Reduction of lumican accumulation” value in [3] (setting [10]) was determined as 19%. In data set [3] (setting [11]), the “Lumican accumulation in the medium” value was “levels below of those measured in insulin alone”. Also, in data set [4] (EDB in medium containing insulin and ascorbate), the “PGDS level in the medium with EDB” value is “declined but the decrease was not significant”. For the same compound, the “Toxicity to the cells” value in data set [5] was “not toxic to the cells”.
With “insulin: insulin added at 10 μg/ml to defined DMEM medium for keratocyte culture”, the “Cell number (DNA content) over 10-day culture period” value in data set [6] is “increased in number”. Further, the “Total collagen synthesized, fold more compared to control” value in [7] (day 1-4, insulin 10 μg/ml, ascorbate 1 mM, vs control medium) stood at 4 fold. In [7] (cell layer, vs control), the “Collagen in the cell layer, fold increase compared to control” value came out at 5 fold. In addition, the “Collagen in the medium, fold increase compared to control” value in data set [7] (medium, vs control) stood at 3 fold. In addition, the “Pepsin-resistant collagen (α1(I), α2(I), α1(V) bands) in the medium” value in [1] (SDS-PAGE) was “absent”. Further, in [2] (setting [12]), the “Keratocan level in the medium, fold increase compared to control” value is on record as “no effect”. The “Lumican level in the medium, fold increase compared to control” value in data set [3] (setting [12]) is on record as “no effect”. The “PGDS level in the medium” value in data set [4] (setting [12]) is “neither ascorbate nor insulin affected PGDS levels”. Also, the “35SO4 incorporation into KS, fold compared to control” value in data set [8] is given as “only minor changes”. For the same compound, in [9], the “35SO4 incorporation into CS, fold compared to control” value is listed as “only minor changes”.

(Values after patent US8921312B2, “Combination of insulin and ascorbate to enhance wound healing” (University of South Florida, priority 2006, dated 2014).)
